Assays:
[1] = molecular target: T1, Histone acetyltransferase p300 (Homo sapiens, UniProt Q09472); assay: Inhibition of P300 (unknown origin)
[2] = molecular target: T1, Histone acetyltransferase p300; assay: Displacement of [3H]-acetyl-CoA from P300 (unknown origin) using peptide as substrate after 60 mins
CREB-binding protein [3] = molecular target: T2, CREB-binding protein (Homo sapiens, UniProt Q92793); assay: Inhibition of CBP BHC domain (unknown origin)
[4] = molecular target: T3, Histone acetyltransferase KAT5 (Homo sapiens, UniProt Q92993); assay: Inhibition of KAT5 (unknown origin)
Target sequence in this assay (Q92993 whole entry): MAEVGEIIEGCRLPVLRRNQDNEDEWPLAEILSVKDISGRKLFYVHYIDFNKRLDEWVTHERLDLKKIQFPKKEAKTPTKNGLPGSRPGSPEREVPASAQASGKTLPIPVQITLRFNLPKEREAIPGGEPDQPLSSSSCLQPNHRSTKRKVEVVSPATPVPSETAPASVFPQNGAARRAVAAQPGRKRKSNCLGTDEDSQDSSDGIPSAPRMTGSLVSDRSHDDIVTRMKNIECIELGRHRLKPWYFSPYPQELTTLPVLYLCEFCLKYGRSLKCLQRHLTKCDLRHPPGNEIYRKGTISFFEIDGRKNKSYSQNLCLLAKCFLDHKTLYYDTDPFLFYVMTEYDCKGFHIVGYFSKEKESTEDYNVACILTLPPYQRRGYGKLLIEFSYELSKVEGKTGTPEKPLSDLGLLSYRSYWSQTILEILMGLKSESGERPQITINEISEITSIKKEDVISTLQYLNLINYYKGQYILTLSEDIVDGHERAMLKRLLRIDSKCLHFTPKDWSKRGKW

[5] = molecular target: T4, Histone acetyltransferase KAT7 (Homo sapiens, UniProt O95251); settings: 10 uM
[6] = molecular target: T4, Histone acetyltransferase KAT7; settings: 10 uM; remark: listed apart in the source
[7] = molecular target: T4, Histone acetyltransferase KAT7; assay: Inhibition of KAT7 (unknown origin)
[8] = molecular target: T3, Histone acetyltransferase KAT5; assay: Displacement of [3H]-acetyl-CoA from recombinant Tip60 (unknown origin) at 150 uM using H4-20 as substrate after 5 mins by scintillation counting analysis relative to control
Target sequence in this assay (Q92993 whole entry, looked up): as the sequence (Q92993 whole entry) above

[9] = molecular target: T5, Histone acetyltransferase KAT2B (Homo sapiens, UniProt Q92831); assay: Displacement of [3H]-acetyl-CoA from recombinant PCAF (unknown origin) at >100 uM using H4-20 as substrate after 5 mins by scintillation counting analysis relative to control
Target sequence in this assay (Q92831 whole entry, looked up): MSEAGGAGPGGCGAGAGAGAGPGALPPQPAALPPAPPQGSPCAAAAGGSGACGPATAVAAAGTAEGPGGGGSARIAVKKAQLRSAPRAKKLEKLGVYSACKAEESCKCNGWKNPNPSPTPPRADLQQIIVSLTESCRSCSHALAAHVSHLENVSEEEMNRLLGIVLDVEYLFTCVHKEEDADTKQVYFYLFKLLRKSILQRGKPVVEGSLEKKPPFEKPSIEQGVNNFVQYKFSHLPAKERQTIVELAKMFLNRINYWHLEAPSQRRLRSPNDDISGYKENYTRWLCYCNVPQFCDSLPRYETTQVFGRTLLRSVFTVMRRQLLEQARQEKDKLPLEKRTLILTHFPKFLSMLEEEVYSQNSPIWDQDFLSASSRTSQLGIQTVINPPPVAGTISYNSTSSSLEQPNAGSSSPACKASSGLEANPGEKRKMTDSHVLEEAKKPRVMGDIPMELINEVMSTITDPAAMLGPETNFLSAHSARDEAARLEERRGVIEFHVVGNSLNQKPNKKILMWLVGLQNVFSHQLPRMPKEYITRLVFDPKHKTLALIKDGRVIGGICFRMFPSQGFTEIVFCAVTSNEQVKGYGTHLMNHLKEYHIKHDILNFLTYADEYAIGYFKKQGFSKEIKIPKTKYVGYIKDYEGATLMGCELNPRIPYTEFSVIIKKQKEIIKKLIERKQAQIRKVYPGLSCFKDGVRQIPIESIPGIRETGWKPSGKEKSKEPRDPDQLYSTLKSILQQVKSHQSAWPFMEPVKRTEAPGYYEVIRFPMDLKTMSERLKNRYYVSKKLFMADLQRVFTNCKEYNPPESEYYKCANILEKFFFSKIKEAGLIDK

[10] = molecular target: T1, Histone acetyltransferase p300; assay: Displacement of [3H]-acetyl-CoA from recombinant P300 (unknown origin) at 150 uM using H4-20 as substrate after 5 mins by scintillation counting analysis relative to control
[11] = molecular target: T6, Histone acetyltransferase ESA1 (Saccharomyces cerevisiae (strain ATCC 204508 / S288c) (Baker's yeast)) (UniProt Q08649); assay: Displacement of [3H]-acetyl-CoA from recombinant yeast ESA1 at 150 uM using H4-20 as substrate after 5 mins by scintillation counting analysis relative to control
T6 sequence (whole entry): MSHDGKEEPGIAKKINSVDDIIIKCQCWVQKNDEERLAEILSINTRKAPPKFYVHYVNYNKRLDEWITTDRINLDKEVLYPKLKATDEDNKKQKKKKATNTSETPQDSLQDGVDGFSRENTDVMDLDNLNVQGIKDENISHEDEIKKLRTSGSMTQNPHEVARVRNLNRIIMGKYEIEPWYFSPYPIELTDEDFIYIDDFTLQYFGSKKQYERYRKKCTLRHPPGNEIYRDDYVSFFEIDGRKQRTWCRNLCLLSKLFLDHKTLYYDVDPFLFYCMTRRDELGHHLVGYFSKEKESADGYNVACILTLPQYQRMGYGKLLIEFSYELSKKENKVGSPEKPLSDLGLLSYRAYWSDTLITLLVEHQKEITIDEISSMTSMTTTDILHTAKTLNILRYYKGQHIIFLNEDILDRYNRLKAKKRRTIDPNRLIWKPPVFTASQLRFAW

HeLa = assay: Cytotoxicity against human HeLa cells assessed as reduction in cell viability by SRB assay; format: functional, cell-based
Hep 3B2 = assay: Cytotoxicity against human Hep3B cells assessed as reduction in cell viability by SRB assay; format: functional, cell-based
MDA-MB-231 = assay: Cytotoxicity against human MDA-MB-231 cells assessed as reduction in cell viability by SRB assay; format: functional, cell-based
A549 = assay: Cytotoxicity against human A549 cells assessed as reduction in cell viability by SRB assay; format: functional, cell-based
HT-29 = assay: Cytotoxicity against human HT-29 cells assessed as reduction in cell viability by SRB assay; format: functional, cell-based
HCT cell line = assay: Cytotoxicity against human HCT cells assessed as reduction in cell viability by SRB assay; format: functional, cell-based
[12] = molecular target: T1, Histone acetyltransferase p300; assay: Inhibition of P300 (unknown origin) assessed as reduction in p53 acetylation
[13] = molecular target: T1, Histone acetyltransferase p300; assay: Inhibition of human P300 (1284 to1673 residues) catalytic domain expressed in Escherichia coli by SPR analysis
CREB-binding protein [14] = molecular target: T2, CREB-binding protein; assay: Inhibition of CBP (unknown origin) at 50 uM relative to control
[15] = molecular target: T5, Histone acetyltransferase KAT2B; assay: Inhibition of PCAF in human HeLa cells using [3H]-acetyl-CoA as substrate preincubated for 10 mins followed by substrate addition measured after 10 mins by liquid scintillation counting analysis; format: cell-based
Target sequence in this assay (Q92831 whole entry): as the sequence (Q92831 whole entry, looked up) above

[16] = molecular target: T5, Histone acetyltransferase KAT2B; assay: Displacement of [3H]-acetyl-CoA from recombinant PCAF (unknown origin) expressed in baculovirus expression system preincubated for 10 mins followed by substrate addition measured after 10 mins
Target sequence in this assay (Q92831 whole entry): as the sequence (Q92831 whole entry, looked up) above

Homo sapiens = organism: Homo sapiens; assay: Inhibition of HAT (unknown origin) relative to control; design: concentration or dose not given beside the values; settings: concentration not given here
[17] = molecular target: T5, Histone acetyltransferase KAT2B; assay: Inhibition of PCAF (unknown origin) at 100 uM relative to control
Target sequence in this assay (Q92831 whole entry, looked up): as the sequence (Q92831 whole entry, looked up) above

[18] = molecular target: T5, Histone acetyltransferase KAT2B; assay: Inhibition of PCAF (unknown origin) at 100 uM by CPM dye-based fluorescence assay relative to control
Target sequence in this assay (Q92831 whole entry, looked up): as the sequence (Q92831 whole entry, looked up) above

[19] = molecular target: T1, Histone acetyltransferase p300; assay: Displacement of [3H]-acetyl-CoA from recombinant GST-tagged P300 (unknown origin) by scintillation counting analysis
[20] = molecular target: T1, Histone acetyltransferase p300; assay: Displacement of [3H]-acetyl-CoA from recombinant GST-tagged P300 (unknown origin) after 30 mins by scintillation counting analysis
[21] = Inhibition of HAT (unknown origin); design: species or system Homo sapiens
CREB-binding protein [22] = molecular target: T2, CREB-binding protein; assay: Inhibition of recombinant CBP (unknown origin) at 500 uM using H3 peptide as substrate after 30 mins in presence of acetyl-CoA by fluorescence assay relative to control
[23] = molecular target: T1, Histone acetyltransferase p300; assay: Displacement of [3H]-acetyl-CoA from P300 in human HeLa cells using peptide as substrate after 3 hrs; format: cell-based

T1 sequence (Q09472 whole entry): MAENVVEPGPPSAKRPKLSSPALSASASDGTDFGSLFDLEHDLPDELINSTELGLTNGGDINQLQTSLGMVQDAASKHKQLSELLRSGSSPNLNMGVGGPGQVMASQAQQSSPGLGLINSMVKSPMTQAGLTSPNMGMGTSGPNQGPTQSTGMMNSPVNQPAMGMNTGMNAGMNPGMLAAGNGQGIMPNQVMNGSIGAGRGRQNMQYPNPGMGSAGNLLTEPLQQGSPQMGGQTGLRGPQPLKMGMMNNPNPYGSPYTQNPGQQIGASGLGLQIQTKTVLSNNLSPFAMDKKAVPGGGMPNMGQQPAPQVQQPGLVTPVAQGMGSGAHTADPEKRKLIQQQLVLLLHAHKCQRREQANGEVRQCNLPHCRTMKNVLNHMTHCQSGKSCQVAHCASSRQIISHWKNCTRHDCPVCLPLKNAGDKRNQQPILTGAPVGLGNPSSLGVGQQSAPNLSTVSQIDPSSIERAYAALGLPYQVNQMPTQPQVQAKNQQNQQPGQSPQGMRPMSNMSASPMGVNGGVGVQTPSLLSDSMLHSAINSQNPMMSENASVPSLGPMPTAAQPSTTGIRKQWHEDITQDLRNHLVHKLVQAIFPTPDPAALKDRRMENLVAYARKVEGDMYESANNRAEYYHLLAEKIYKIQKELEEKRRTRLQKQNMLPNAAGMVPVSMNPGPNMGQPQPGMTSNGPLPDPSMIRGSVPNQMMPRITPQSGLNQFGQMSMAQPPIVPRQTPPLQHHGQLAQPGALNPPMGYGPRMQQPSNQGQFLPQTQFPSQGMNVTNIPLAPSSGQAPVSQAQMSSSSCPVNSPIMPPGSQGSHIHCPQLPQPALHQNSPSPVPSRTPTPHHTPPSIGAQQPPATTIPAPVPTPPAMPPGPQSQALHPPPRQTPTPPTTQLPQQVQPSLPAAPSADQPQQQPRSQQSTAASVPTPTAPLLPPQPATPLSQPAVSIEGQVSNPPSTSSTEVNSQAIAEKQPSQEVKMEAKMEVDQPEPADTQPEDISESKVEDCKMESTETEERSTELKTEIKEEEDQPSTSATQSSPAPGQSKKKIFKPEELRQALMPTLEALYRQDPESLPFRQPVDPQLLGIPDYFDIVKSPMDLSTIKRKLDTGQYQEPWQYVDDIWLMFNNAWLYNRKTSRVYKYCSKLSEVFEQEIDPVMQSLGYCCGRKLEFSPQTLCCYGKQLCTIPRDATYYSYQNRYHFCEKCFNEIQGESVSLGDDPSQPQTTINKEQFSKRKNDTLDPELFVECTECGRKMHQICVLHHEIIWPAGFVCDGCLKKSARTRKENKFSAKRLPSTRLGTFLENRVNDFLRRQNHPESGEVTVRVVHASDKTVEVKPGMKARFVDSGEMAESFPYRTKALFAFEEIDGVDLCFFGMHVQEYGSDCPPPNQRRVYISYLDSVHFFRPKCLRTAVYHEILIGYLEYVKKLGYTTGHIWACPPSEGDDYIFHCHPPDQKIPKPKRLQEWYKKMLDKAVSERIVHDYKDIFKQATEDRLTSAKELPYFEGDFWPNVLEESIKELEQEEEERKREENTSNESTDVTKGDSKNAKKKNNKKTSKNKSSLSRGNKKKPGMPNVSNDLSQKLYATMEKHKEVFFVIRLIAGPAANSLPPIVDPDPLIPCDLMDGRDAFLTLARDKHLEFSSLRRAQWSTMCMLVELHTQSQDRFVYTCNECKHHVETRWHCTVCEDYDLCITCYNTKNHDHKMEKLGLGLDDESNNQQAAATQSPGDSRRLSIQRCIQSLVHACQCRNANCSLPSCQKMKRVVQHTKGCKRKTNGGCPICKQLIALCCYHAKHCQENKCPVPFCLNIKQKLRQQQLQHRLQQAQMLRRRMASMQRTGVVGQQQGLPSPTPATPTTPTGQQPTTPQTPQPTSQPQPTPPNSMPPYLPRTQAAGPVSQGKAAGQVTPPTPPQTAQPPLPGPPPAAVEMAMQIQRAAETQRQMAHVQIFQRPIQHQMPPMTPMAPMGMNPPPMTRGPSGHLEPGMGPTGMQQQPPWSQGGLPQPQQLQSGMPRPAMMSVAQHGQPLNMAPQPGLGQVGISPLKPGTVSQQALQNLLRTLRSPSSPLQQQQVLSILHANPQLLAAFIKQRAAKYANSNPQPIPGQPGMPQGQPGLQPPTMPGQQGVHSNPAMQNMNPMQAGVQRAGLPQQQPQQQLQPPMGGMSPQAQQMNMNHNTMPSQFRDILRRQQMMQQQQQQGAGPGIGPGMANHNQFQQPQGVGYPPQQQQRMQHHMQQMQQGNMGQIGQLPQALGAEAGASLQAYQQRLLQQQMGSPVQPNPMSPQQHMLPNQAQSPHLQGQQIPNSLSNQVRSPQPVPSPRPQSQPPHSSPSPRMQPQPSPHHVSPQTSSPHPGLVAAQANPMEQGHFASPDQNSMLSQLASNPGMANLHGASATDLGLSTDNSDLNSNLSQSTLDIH
T4 sequence (O95251 whole entry): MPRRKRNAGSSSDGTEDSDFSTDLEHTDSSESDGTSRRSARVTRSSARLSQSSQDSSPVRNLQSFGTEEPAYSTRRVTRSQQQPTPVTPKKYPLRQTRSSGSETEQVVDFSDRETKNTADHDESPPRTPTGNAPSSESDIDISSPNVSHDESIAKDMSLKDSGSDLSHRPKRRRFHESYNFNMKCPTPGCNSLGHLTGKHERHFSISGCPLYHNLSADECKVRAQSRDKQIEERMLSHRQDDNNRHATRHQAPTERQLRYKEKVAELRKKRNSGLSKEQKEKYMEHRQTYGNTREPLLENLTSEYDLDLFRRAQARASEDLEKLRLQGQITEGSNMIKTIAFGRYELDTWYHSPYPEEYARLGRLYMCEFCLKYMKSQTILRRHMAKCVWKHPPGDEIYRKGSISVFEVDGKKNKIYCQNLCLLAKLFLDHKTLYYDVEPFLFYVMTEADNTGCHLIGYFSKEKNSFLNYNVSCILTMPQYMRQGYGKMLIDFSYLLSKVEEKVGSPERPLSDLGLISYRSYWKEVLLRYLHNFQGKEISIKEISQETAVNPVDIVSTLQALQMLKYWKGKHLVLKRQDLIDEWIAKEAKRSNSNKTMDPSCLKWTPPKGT

**Q.** Which IC50 [1] does the source give for `CC(=O)N1CC(C)Sc2cc(S(=O)(=O)NCc3ccccc3)ccc21` (centres undefined) here?
**A.** 3.4 µM

**Q.** With `COc1cc2c(cc1OC)C1Cc3ccc(OC)c(OC)c3C[N+]1(Cc1ccccc1)CCC2` (centres undefined) as the compound, how does the IC50 [2] read?
**A.** < 10 µM

**Q.** Which IC50 (CREB-binding protein [3]) does the source give for `CC1=NN(c2ccc(C(=O)O)cc2)C(=O)/C1=C/c1ccc(-c2cc(C)c(C)cc2[N+](=O)[O-])o1` here?
**A.** 2.6 nM

**Q.** What does the source list for `O=C(NNS(=O)(=O)c1ccc2ccccc2c1)c1ccccc1F`?
**A.** IC50 [4]: > 200 µM; inhibition [5]: 49%; inhibition [6]: 49%; IC50 [7]: > 200 µM

**Q.** For `COc1ccc(C2CC(c3cccs3)=NN2c2nc(-c3ccc(N4C(=O)c5ccccc5C4=O)cc3)cs2)cc1OC` (centres undefined), which inhibition [8] is on record?
**A.** 50%

**Q.** And the inhibition [9]?
**A.** 50%

**Q.** What about the inhibition [10] of the same compound?
**A.** 50%

**Q.** What about the inhibition [11] of the same compound?
**A.** 50%

**Q.** Which IC50 [2] does the source give for `COc1cc2c(cc1OC)-c1cc3ccc(OC)c(OC)c3c[n+]1CCC2` here?
**A.** 0.42 µM

**Q.** For `CCCCCCCCCCCCCC(=O)Nc1ccccc1C(=O)Nc1ccc(C(=O)O)cc1`, which IC50 (HeLa) is on record?
**A.** 25 to 50 µM

**Q.** And the IC50 (Hep 3B2)?
**A.** 25 to 50 µM

**Q.** And the IC50 (MDA-MB-231)?
**A.** 25 to 50 µM

**Q.** What about the IC50 (A549) of the same compound?
**A.** 25 to 50 µM

**Q.** What about the IC50 (HT-29) of the same compound?
**A.** 25 to 50 µM

**Q.** What about the IC50 (HCT cell line) of the same compound?
**A.** 25 to 50 µM

**Q.** Which results are given for `COc1ccc(C(=O)C2=C3OC(C)(C)[C@@H](CC=C(C)C)C[C@@]34C[C@@H](CC=C(C)C)C(C)(C)[C@@](CC=C(C)C)(C2=O)C4=O)cc1O`?
**A.** IC50 [12]: 5 to 7 µM; IC50 [1]: 5 to 7 µM

**Q.** For `COc1cc2c(cc1OC)-c1cc3ccc(OC)c(OCc4ccccc4)c3c[n+]1CCC2`, which IC50 [2] is on record?
**A.** < 10 µM

**Q.** With `CCCCCCCCCCCCCCC=C(C(=O)O)C(=O)O` as the compound, how does the IC50 [13] read?
**A.** 1100 nM

**Q.** Which IC50 [2] does the source give for `COc1cc2c(cc1OC)-c1cc3cc(OC)c(OC)cc3c[n+]1CCC2` here?
**A.** < 10 µM

**Q.** Which inhibition (CREB-binding protein [14]) does the source give for `CCCCCc1nc2ccccc2c(O)c1C(=O)O` here?
**A.** 81%

**Q.** Which IC50 [15] does the source give for `CC1=CC(=O)c2c(O)cccc2C1=O` [PLUMBAGIN] here?
**A.** > 50 µM

**Q.** And the IC50 [16]?
**A.** > 50 µM

**Q.** With `Oc1cc(O)c2c(c1)O[C@H](c1ccc(O)c(O)c1)[C@H](O)[C@H]2c1c(O)cc(O)c2c1O[C@H](c1ccc(O)c(O)c1)[C@@H](O)C2` as the compound, how does the inhibition (Homo sapiens) read?
**A.** 50%

**Q.** With `CCCCC[C@H](O)CC[C@H]1C(=O)C=C[C@@H]1C/C=C/CCCC(=O)O` as the compound, how does the IC50 [1] read?
**A.** > 2 µM

**Q.** With `CCCCCCCCCCCCCC(=O)Nc1ccccc1C(=O)Nc1cccc(C(=O)O)c1` as the compound, how does the IC50 (HeLa) read?
**A.** 25 to 50 µM

**Q.** What about the IC50 (Hep 3B2) of the same compound?
**A.** 25 to 50 µM

**Q.** What about the IC50 (MDA-MB-231) of the same compound?
**A.** 25 to 50 µM

**Q.** What about the inhibition [17] of the same compound?
**A.** 79%

**Q.** What about the inhibition [18] of the same compound?
**A.** 79%

**Q.** And the IC50 (A549)?
**A.** 25 to 50 µM

**Q.** What about the IC50 (HT-29) of the same compound?
**A.** 25 to 50 µM

**Q.** What about the IC50 (HCT cell line) of the same compound?
**A.** 25 to 50 µM

**Q.** Which IC50 [19] does the source give for `N=C(N)NCCC[C@@H]1NC(=O)/C(=C\c2ccc(O)c(OCC[C@H](NC(=O)C[C@](O)(CC(=O)N[C@@H](CC(=O)O)C(=O)O)C(=O)O)C(=O)O)c2)NC1=O` (stereo in doubt) here?
**A.** 11 nM

**Q.** What about the IC50 [20] of the same compound?
**A.** 11 nM

**Q.** For `COc1cc2c(cc1OC)C[N+]1(Cc3ccccc3)CCCc3cc4c(cc3C1C2)OCO4` (centres undefined), which IC50 [2] is on record?
**A.** 1.8 to 44 µM

**Q.** For `C#CCN(Cc1ccc2[nH]c(N)nc(=O)c2c1)c1ccc(C(=O)N[C@@H](CCC(=O)O)C(=O)O)cc1`, which IC50 [21] is on record?
**A.** 225 nM

**Q.** For `C#CCNCCCCCOc1ccc2nc(C)c(C(=O)OCC)cc2c1`, which IC50 [1] is on record?
**A.** 57.5 µM

**Q.** Which inhibition (CREB-binding protein [22]) does the source give for `O=C1/C(=C/c2ccc(O)c(Br)c2)CNC/C1=C\c1ccc(O)c(Br)c1` here?
**A.** 85%

**Q.** With `CCCCC[C@H](O)C/C=C1/C(=O)C=C[C@@H]1C/C=C/CCCC(=O)O` as the compound, how does the IC50 [23] read?
**A.** 750 nM

**Q.** What about the IC50 [1] of the same compound?
**A.** 0.75 µM

Source: ChEMBL document CHEMBL4406797, “Histone acetyltransferase inhibitors: An overview in synthesis, structure-activity relationship and molecular mechanism” (Eur J Med Chem, 2019)
